Reference: patent publication US6096874A (Board of Regents, the University of Texas System, priority 1995, dated 2000)
Like-named read-outs stand apart in the source and are kept apart here. Blank lines part the entries; values can stand above or below the molecule they belong to.

Experiments:
[1] = tested on: breast tumors; experiment: PET imaging of ER+ breast tumors in patients; assay type: in vivo, human; conditions: for SUV in lesion of patients responding poorly to tamoxifen therapy: 4/5 patients
[2] = tested on: uterus and ovaries; experiment: PET imaging of pig uterus and ovaries and blood clearance in pigs; assay type: in vivo; conditions: for Uterus/ovary uptake in PET image (in words): 1 h postinjection
Experimental: PET imaging was performed on four domestic female pigs (30 lb) with a positron camera (Positron Corporation, Houston, Tex). Each pig was supine in the scanner so that the detector rings would span the entire pelvic region. Prior to scanning, the position of the uterus and ovaries was determined by hysterosalpingography. Fifteen milliliters of radiopaque (Renografin 76 Squibb Diagnostic, New Brunswick, N.J.) was injected through the vagina into the uterus via a 5 Fr catheter with the balloon inflated by 1 ml of air. Radiographs of the pelvis in the anterior-posterior projection were taken. The location of the uterus was marked permanently on the skin of each pig for positioning in the PET camera.
A 20 min attenuation scan was performed with a 4 mCi ^68 Ge-ring source prior to tracer injection. After each pig received 10 mCi of [^18 F]FTX, […] consecutive 10 min scans were acquired. There was a 5 min wait between scans for data transfer. […] In order to examine the blood clearance profile of [^18 F]FTX, venous blood samples (0.5 ml) were collected every minute for the first ten minutes, followed by every ten minutes up to two hours. Serial transaxial images of the pelvic region were performed in order to view the uterus. The tomograph has a field-of-view of t42 cm on transverse and 12 cm on coronal planes. The axial resolution on the reconstructed plane is 1.2 cm.

[3] = tested on: rabbit uterus; experiment: Gamma scintigraphic imaging of estrogen receptor sites in rabbits; assay type: in vivo; conditions: for Rabbit uterus uptake after DES block (in words): DES 15 mg iv pretreatment
Experimental: Gamma scintigraphic images were obtained from GE Starport System (GE Company, Milwaukee, Wis.). […] Each pixel was 14 bits deep. Six New Zealand female rabbits (3-4 Kg B.W.) were administered 300 μCi of [^131 I]iodotamoxifen (iv) and multiple images at 2, 24 and 48 hours were accomplished. To ascertain the radioactivity uptake in uterus is via an ER-mediated process, the rabbits were administered with diethylstilbestrol (15 mg,iv) 1 hour prior to receiving [^131 I]ITX and the images were obtained at 2, 24 and 48 hours.

[4] = Biodistribution in mammary tumor-bearing rats primed with estradiol; assay type: in vivo, rat; conditions: for tissue uptake at 1 h / tissue uptake at 3 h / tissue uptake at 6 h / tissue uptake at 24 h: rat, iv
Experimental: Female Fisher 344 rats (250-275 g) (Harlan, Inc., Indianapolis, Ind.) were inoculated with mammary tumor cells using the 13762 tumor cell line (s.c. 10^5 cells/rat). After 14 days, a tumor size of 1-2 cm was observed. For ^131 I-ITX studies, five groups of rats (N=3/group) were anesthetized with ketamine (10-15 mg/rat). […] In blocking studies, the fifth group of rats was given diethylstilbestrol (DES) (1.2 mg/rat) for 1 h, followed by 8.9 μCi of ^131 I-ITX; biodistribution was studied 6 h later. The tissues were collected at different time intervals. The tissues were weighted and counted for radioactivity. The percent of injected dose per gram of tissue weight was calculated.
[…]. The biodistribution studies were conducted at 1, 3, 6 and 24 h.

- SUV in lesion of patients responding poorly to tamoxifen therapy ([1]; listed as 18 F-tamoxifen): < 2.0
- SUV in lesion of patients responding poorly to tamoxifen therapy ([1]; listed as [^18 f]fluorotamoxifen): less than 2.0
- SUV ([1]; patient 1, left breast): 1.6
- SUV ([1]; patient 1, spine): 6.2
- SUV ([1]; patient 1, sternum): 4.2
- SUV ([1]; patient 3, left breast): 2.6
- SUV ([1]; patient 4, right axilla): 1.3
- SUV ([1]; patient 5, lung): 3.3
- SUV ([1]; patient 6, left axilla): 2.9
- SUV ([1]; patient 7, skull): 0.9
- SUV ([1]; patient 8, neck): 2.4
- SUV ([1]; patient 9, scapula): 1.3
- SUV ([1]; patient 10, spine): 6.3
- Time to clearance from the blood stream ([2]; 10 mCi i.v., pig): ≤ 10 min
- Uterus/ovary uptake in PET image (in words) ([2]; 10 mCi i.v., listed as 18 F-tamoxifen): can be blocked with DES
- Target organ binding (in words) ([2]; 30 minutes to 2 hours post-administration, pig): constant
SMILES: CCN(CC)CCOc1ccc(/C(=C(/CCC[18F])c2ccccc2)c2ccccc2)cc1 [[^18 F]FTX, (trans)[^18 F]Fluoromethyl-N,N-diethyltamoxifen]
- Uterus/ovary uptake in PET image (in words) ([2]; 10 mCi i.v.): increased uptake could be blocked after pretreatment with DES
- Uterus/ovary uptake in PET image (in words) ([2]; 10 mCi i.v., listed as 18 F-tracer): increased uptake could be blocked after pretreatment with diethylstilbestrol

- uterus:muscle uptake ratio ([3]; 24 h postinjection): 4.6
- Rabbit uterus uptake after DES block (in words) ([3]; listed as 131 l-iodotamoxifen): the uterus showed decreased uptake
- Tumor uptake ([4]; 24 h, listed as 131 I-ITX, 1440 min): 0.397±0.1231 % injected dose/gram tissue
- Tumor uptake ([4]; 24 h, listed as 131 I-Iodo Analogue of Tamoxifen, 1440 min): 0.397 % injected dose/gram tissue
- tissue uptake at 1 h ([4]; blood, 10 uCi/rat, 1 h, read-out: Blood uptake): 0.155 ± 0.004 %ID/g
- tissue uptake at 3 h ([4]; blood, 10 uCi/rat, 3 h, read-out: Blood uptake): 0.12 ± 0.0137 %ID/g
- tissue uptake at 6 h ([4]; blood, 10 uCi/rat, 6 h, read-out: Blood uptake): 0.086 ± 0.0018 %ID/g
- tissue uptake at 24 h ([4]; blood, 10 uCi/rat, 24 h, read-out: Blood uptake): 0.036 ± 0.0001 %ID/g
- tissue uptake at 1 h ([4]; kidney, 10 uCi/rat, 1 h, read-out: Kidney uptake): 1.3 ± 0.0839 %ID/g
- tissue uptake at 3 h ([4]; kidney, 10 uCi/rat, 3 h, read-out: Kidney uptake): 1.49 ± 0.107 %ID/g
- tissue uptake at 6 h ([4]; kidney, 10 uCi/rat, 6 h, read-out: Kidney uptake): 1.39 ± 0.116 %ID/g
- tissue uptake at 24 h ([4]; kidney, 10 uCi/rat, 24 h, read-out: Kidney uptake): 0.573 %ID/g
- tissue uptake at 1 h ([4]; liver, 10 uCi/rat, 1 h, read-out: Liver uptake): 6.746 ± 0.0546 %ID/g
- tissue uptake at 3 h ([4]; liver, 10 uCi/rat, 3 h, read-out: Liver uptake): 6.73 ± 0.122 %ID/g
- tissue uptake at 6 h ([4]; liver, 10 uCi/rat, 6 h, read-out: Liver uptake): 4.67 ± 0.461 %ID/g
- tissue uptake at 24 h ([4]; liver, 10 uCi/rat, 24 h, read-out: Liver uptake): 2.71 %ID/g
- tissue uptake at 1 h ([4]; lung, 10 uCi/rat, 1 h, read-out: Lung uptake): 2.83 ± 0.14 %ID/g
- tissue uptake at 3 h ([4]; lung, 10 uCi/rat, 3 h, read-out: Lung uptake): 3.04 ± 0.411 %ID/g
- tissue uptake at 6 h ([4]; lung, 10 uCi/rat, 6 h, read-out: Lung uptake): 3.06 ± 0.458 %ID/g
- tissue uptake at 24 h ([4]; lung, 10 uCi/rat, 24 h, read-out: Lung uptake): 1.12 %ID/g
- tissue uptake at 1 h ([4]; muscle, 10 uCi/rat, 1 h, read-out: Muscle uptake): 0.214 ± 0.0176 %ID/g
- tissue uptake at 3 h ([4]; muscle, 10 uCi/rat, 3 h, read-out: Muscle uptake): 0.242 ± 0.187 %ID/g
- tissue uptake at 6 h ([4]; muscle, 10 uCi/rat, 6 h, read-out: Muscle uptake): 0.253 ± 0.0208 %ID/g
- tissue uptake at 24 h ([4]; muscle, 10 uCi/rat, 24 h, read-out: Muscle uptake): 0.114 %ID/g
- tissue uptake at 1 h ([4]; tumor, 1 h, read-out: Tumor uptake): 0.3 ± 0.033 %ID/g
- tissue uptake at 3 h ([4]; tumor, 3 h, read-out: Tumor uptake): 0.42 %ID/g
- tissue uptake at 6 h ([4]; tumor, 6 h, read-out: Tumor uptake): 0.48 ± 0.107 %ID/g
- tissue uptake at 24 h ([4]; tumor, 24 h, read-out: Tumor uptake): 0.4 ± 0.123 %ID/g
- tissue uptake at 1 h ([4]; uterus, 10 uCi/rat, 1 h, read-out: Uterus uptake): 0.334 ± 0.0485 %ID/g
- tissue uptake at 3 h ([4]; uterus, 10 uCi/rat, 3 h, read-out: Uterus uptake): 0.4 ± 0.132 %ID/g
- tissue uptake at 6 h ([4]; uterus, 10 uCi/rat, 6 h, read-out: Uterus uptake): 0.559 ± 0.0982 %ID/g
- tissue uptake at 24 h ([4]; uterus, 10 uCi/rat, 24 h, read-out: Uterus uptake): 0.335 %ID/g
SMILES: CCN(CC)CCOc1ccc(/C(=C(/CCC[131I])c2ccccc2)c2ccccc2)cc1 [^131 I-IODOTAMOXIFEN]
- Rabbit uterus uptake after DES block (in words) ([3]; listed as [^131 I]ITX): rabbit uterus uptake can be blocked by pretreatment with DES
- Rabbit uterus uptake after DES block (in words) ([3]; listed as [^131 ]ITX): increased uptake can be blocked by pretreatment of the rabbit with DES
- Tumor uptake ([4]; 1 h, listed as 131 I-Iodo Analogue of Tamoxifen, 60 min): 0.303 ± 0.0333 % injected dose/gram tissue
- Tumor uptake ([4]; 3 h, listed as 131 I-Iodo Analogue of Tamoxifen, 180 min): 0.422 ± 0.0389 % injected dose/gram tissue
- Tumor uptake ([4]; 6 h, listed as 131 I-Iodo Analogue of Tamoxifen, 360 min): 0.479 ± 0.1065 % injected dose/gram tissue
